Results taken from ChEMBL document CHEMBL3603817, “Potent and Selective Inhibitors of Histone Deacetylase-3 Containing Chiral Oxazoline Capping Groups and a N-(2-Aminophenyl)-benzamide Binding Unit” (J Med Chem, 2015).
≈ marks a conversion by molar mass, not a printed value.

What was measured:
Assay type in all cases: physicochemical
[1] = Distribution coefficient, log D of the compound by HPLC method; details: octanol/water
[2] = Lipophilicity, log P of the compound; details: octanol/water
[3] = Solubility by CLND method

logD [1] | logP [2] | solubility kinetic [3] | Compound
3.1 | 3.74 |  | Nc1ccccc1NC(=O)c1ccc(CNC2=N[C@@H](c3ccccc3)CO2)cc1
3.09 | 3.76 | ≥ 151 µg/mL | Nc1ccccc1NC(=O)c1ccc(CNC2=N[C@H](c3ccccc3)CO2)cc1
 | 3.97 | 147 µg/mL (≈ 363 µM) | Nc1ccccc1NC(=O)c1ccc(CNC2=NC(c3ccc(F)cc3)CO2)cc1 (stereo not drawn)
3.42 | 3.84 | ≥ 131 µg/mL | Nc1ccccc1NC(=O)c1ccc(CNC2=NC(c3cccc(F)c3)CO2)cc1 (stereo not drawn)
4.54 | 4.72 | 8 µg/mL (≈ 17.6 µM) | Nc1ccccc1NC(=O)c1ccc(CNC2=NC(c3ccc(C(F)(F)F)cc3)CO2)cc1 (stereo not drawn)
1.74 | 2.13 | ≥ 130 µg/mL | Nc1ccccc1NC(=O)c1ccc(CNC2=N[C@@H](c3ccc(O)cc3)CO2)cc1
1.71 | 1.78 | ≥ 124 µg/mL | Nc1ccccc1NC(=O)c1ccc(CNC2=N[C@@H](c3cccnc3)CO2)cc1
2.86 | 4.15 | ≥ 148 µg/mL | Nc1ccccc1NC(=O)c1ccc(CNC2=N[C@@H](Cc3ccccc3)CO2)cc1
2.79 | 3.58 | 98 µg/mL (≈ 254 µM) | Nc1ccccc1NC(=O)c1ccc(CNC2=NC[C@@H](c3ccccc3)O2)cc1
2.99 | 3.84 | 77 µg/mL (≈ 199 µM) | Nc1ccccc1NC(=O)c1ccc(CNC2=NC[C@H](c3ccccc3)O2)cc1
0.9 | 0.95 | ≥ 142 µg/mL | Nc1ccccc1NC(=O)c1ccc(CNC2=N[C@@H](Cc3c[nH]cn3)CO2)cc1
0.89 | 0.93 | ≥ 158 µg/mL | Nc1ccccc1NC(=O)c1ccc(CNC2=N[C@H](Cc3c[nH]cn3)CO2)cc1

Further lines, the compound ahead of its results:

Compound | logD [1] | logP [2] | solubility kinetic [3]
Nc1ccccc1NC(=O)c1ccc(CNC2=N[C@@H](c3ccccc3)CN2)cc1 | 1.92 | 3.46 | ≥ 70 µg/mL
Nc1ccccc1NC(=O)c1ccc(CSC2=N[C@@H](c3ccccc3)CN2)cc1 | 3.49 | 4.31 | 116 µg/mL (≈ 288 µM)
Nc1ccccc1NC(=O)c1ccc(CSC2=N[C@@H](c3cccnc3)CO2)cc1 | 3.19 | 3.32 | 108 µg/mL (≈ 267 µM)
Nc1ccccc1NC(=O)c1ccc(CSC2=N[C@@H](Cc3ccccc3)CO2)cc1 | 5.41 | 5.67 | 31 µg/mL (≈ 74.2 µM)
Nc1ccccc1NC(=O)c1ccc(CNC2=NC(c3ccccc3)(c3ccccc3)CO2)cc1 | 5.29 | 5.59 | 7 µg/mL (≈ 15.1 µM)
Nc1ccccc1NC(=O)c1ccc(CNC2=N[C@@H](c3ccccc3)[C@H](c3ccccc3)O2)cc1 | 5.01 | 5.41 | 6 µg/mL (≈ 13 µM)
Nc1ccccc1NC(=O)c1ccc(CNC2=N[C@H](c3ccccc3)[C@H](c3ccccc3)O2)cc1 | 4.54 | 5.01 | 73 µg/mL (≈ 158 µM)
Nc1ccccc1NC(=O)c1ccc(CNc2nccc(-c3cccnc3)n2)cc1 [MOCETINOSTAT] | 2.96 | 2.96 | 107 µg/mL (≈ 270 µM)
